This is an account of results in patent publication US20250368652A1, “MICROBIOCIDAL BICYCLIC HETEROCYCLIC CARBOXAMIDE DERIVATIVES” (SYNGENTA CROP PROTECTION AG, priority 2022, published 2025).

Assay [1] deals with Botryotinia fuckeliana (Botrytis cinerea). In words: Botryotinia fuckeliana (Botrytis cinerea) / liquid culture (gray mould). The note with it: liquid culture (Vogels broth), growth inhibition photometrically 3-4 days after application, compared to untreated control. It counts as cell-based. As to the method: (§1) Mycelia fragments or conidia suspensions of a fungus prepared either freshly from liquid cultures of the fungus or from cryogenic storage, are directly mixed into nutrient broth. DMSO solutions of the test compound (max. 10 mg/mL) are diluted with 0.025% Tween20 by a factor of 50 and 10 μL of this solution is pipetted into a microtiter plate (96-well format). The nutrient broth containing the fungal spores/mycelia fragments is then added to give an end concentration of the tested compound. The test plates are incubated in the dark at 24° C. and 96% relative humidity. The inhibition of fungal growth is determined photometrically after 2 to 7 days, depending on the pathosystem, and percent antifungal activity relative to the untreated check is calculated. Conidia of the fungus from cryogenic storage are directly mixed into nutrient broth (Vogels broth). After placing a (DMSO) solution of test compound into a microtiter plate (96-well format), the nutrient broth containing the fungal spores is added. The test plates are incubated at 24° C. and the inhibition of growth is determined photometrically 3-4 days after application.

In assay [2] the test system is Magnaporthe grisea (Pyricularia oryzae). It counts as in vivo. Conditions: 200 ppm; rice leaf segments cv. Ballila, preventative, inoculated 2 days after application; compared to untreated control.
The next assay concerns Phytophthora infestans. It is filed as in vivo. Conditions: 200 ppm; tomato leaf disks, preventative, inoculated 1 day after application; compared to untreated control.
Assay [3] has as its system Glomerella lagenarium (Colletotrichum lagenarium). As to the kind of experiment: Glomerella lagenarium (Colletotrichum lagenarium) / liquid culture (anthracnose). It is filed as cell-based. The note with it: Colletotrichum orbiculare, liquid culture (PDB), growth inhibition photometrically 3-4 days after application, compared to untreated control. As to the method:
as §1, with “nutrient broth (PDB potato dextrose broth). After” for “nutrient broth (Vogels broth). After”, “growth is measured photometrically 3-4” for “growth is determined photometrically 3-4”

The test system of assay [4] is Blumeria graminis f. sp. tritici (Erysiphe graminis f. sp. tritici). As to the kind of experiment: Blumeria graminis f. sp. tritici / wheat / leaf disc preventative (powdery mildew on wheat). It is filed as in vivo. Conditions: 200 ppm, wheat leaf segments cv. Kanzler, inoculated 1 day after application, compared to untreated control. The protocol:
Leaf disks or leaf segments of various plant species are cut from plants grown in a greenhouse. The cut leaf disks or segments are placed in multiwell plates (24-well format) onto water agar. The leaf disks are sprayed with a test solution before (preventative) or after (curative) inoculation. Compounds to be tested are prepared as DMSO solutions (max. 10 mg/mL) which are diluted to the appropriate concentration with 0.025% Tween20 just before spraying. The inoculated leaf disks or segments are incubated under defined conditions (temperature, relative humidity, light, etc.) according to the respective test system. A single evaluation of disease level is carried out 3 to 14 days after inoculation, depending on the pathosystem. Percent disease control relative to the untreated check leaf disks or segments is then calculated. Wheat leaf segments cv. Kanzler are placed on agar in a multiwell plate (24-well format) and sprayed with the formulated test compound diluted in water. […] The inoculated leaf disks are incubated at 20° C. and 60% rh under a light regime of 24 h darkness followed by 12 h light/12 h darkness in a climate chamber and the activity of a compound is assessed as percent disease control compared to untreated when an appropriate level of disease damage appears on untreated check leaf segments (6-8 days after application).

The test system of assay [5] is Phaeosphaeria nodorum (Septoria nodorum). As to the kind of experiment: Phaeosphaeria nodorum (Septoria nodorum) / wheat / leaf disc preventative (glume blotch). It is filed as in vivo. The note with it: 200 ppm, wheat leaf segments cv. Kanzler, inoculated 2 days after application, compared to untreated control. As to the method:
Leaf disks or leaf segments of various plant species are cut from plants grown in a greenhouse. The cut leaf disks or segments are placed in multiwell plates (24-well format) onto water agar. The leaf disks are sprayed with a test solution before (preventative) or after (curative) inoculation. Compounds to be tested are prepared as DMSO solutions (max. 10 mg/mL) which are diluted to the appropriate concentration with 0.025% Tween20 just before spraying. The inoculated leaf disks or segments are incubated under defined conditions (temperature, relative humidity, light, etc.) according to the respective test system. A single evaluation of disease level is carried out 3 to 14 days after inoculation, depending on the pathosystem. Percent disease control relative to the untreated check leaf disks or segments is then calculated. Wheat leaf segments cv. Kanzler are placed on agar in a multiwell plate (24-well format) and sprayed with the formulated test compound diluted in water. […] The inoculated test leaf disks are incubated at 20° C. and 75% rh under a light regime of 12 h light/12 h darkness in a climate cabinet and the activity of a compound is assessed as percent disease control compared to untreated when an appropriate level of disease damage appears in untreated check leaf disks (5-7 days after application).

Assay [6] concerns Puccinia recondita f. sp. tritici. In words: Puccinia recondita f. sp. tritici / wheat / leaf disc curative (brown rust). It counts as in vivo. Conditions: 200 ppm, wheat leaf segments cv. Kanzler, applied 1 day after inoculation, compared to untreated control.
A further assay has as its system Pyrenophora teres. As to the kind of experiment: Pyrenophora teres / barley / leaf disc preventative (net blotch). Conditions: 200 ppm, barley leaf segments cv. Hasso, inoculated 2 days after application, compared to untreated control. It is filed as in vivo.
The test system of another assay is Alternaria solani. As to the kind of experiment: Alternaria solani / tomato / leaf disc (early blight). Conditions: 200 ppm; tomato leaf disks cv. Baby, inoculated 2 days after application; compared to untreated control. It is filed as in vivo. As to the method: Leaf disks or leaf segments of various plant species are cut from plants grown in a greenhouse. The cut leaf disks or segments are placed in multiwell plates (24-well format) onto water agar. The leaf disks are sprayed with a test solution before (preventative) or after (curative) inoculation. Compounds to be tested are prepared as DMSO solutions (max. 10 mg/mL) which are diluted to the appropriate concentration with 0.025% Tween20 just before spraying. The inoculated leaf disks or segments are incubated under defined conditions (temperature, relative humidity, light, etc.) according to the respective test system. A single evaluation of disease level is carried out 3 to 14 days after inoculation, depending on the pathosystem. Percent disease control relative to the untreated check leaf disks or segments is then calculated. Tomato leaf disks cv. Baby are placed on agar in multiwell plates (24-well format) and sprayed with the formulated test compound diluted in water. The leaf disks are inoculated with a spore suspension of the fungus 2 days after application. The inoculated leaf disks are incubated at 23° C./21° C.

The compound `O=C(NCC(F)c1ccc(Cl)cc1Cl)c1c(Oc2cccc(C3CC3)c2)cnc2c(Cl)cnn12` (racemic) [Compound P-1.9, 3-chloro-6-(3-cyclopropylphenoxy)-N-[2-(2,4-dichlorophenyl)-2-fluoro-ethyl]pyrazolo[1,5-a]pyrimidine-7-carboxamide] showed an inhibition of growth at 20 ppm in assay [1] of no less than 80%. In addition, in [2], the “control of Magnaporthe grisea” value is given as “at least 80%”. Moreover, the “control of Phytophthora infestans” value in the assay with Phytophthora infestans is “at least 80%”.

For `O=C(NC[C@H](F)c1ccc(Cl)cc1Cl)c1c(Oc2cccc(C3CC3)c2)cnc2c(Cl)cnn12` (single isomer, unassigned) [Compound P-1.16], the inhibition of growth at 20 ppm in [1] and in assay [3] was no less than 80% throughout. In assay [4], the “control of Blumeria graminis f. sp. tritici” value is listed as “at least 80%”. In addition, the “control of Phaeosphaeria nodorum” value in assay [5] is recorded as “at least 80%”.

Take `N#Cc1cc2ncc(Oc3cccc(C4CC4)c3)c(C(=O)NCC(F)c3ccc(Cl)cc3Cl)n2n1` (centres unmarked) [Compound P-1.8, 2-cyano-6-(3-cyclopropylphenoxy)-N-[2-(2,4-dichlorophenyl)-2-fluoro-ethyl]pyrazolo[1,5-a]pyrimidine-7-carboxamide]: the inhibition of growth at 20 ppm in assay [1] and in assay [3] was no less than 80% each time. Besides, the “control of Puccinia recondita f. sp. tritici” value in [6] is reported as “at least 80%”.

Take `Cc1cc2ncc(Oc3cccc(C4CC4)c3)c(C(=O)NCC(F)c3ccc(Cl)cc3Cl)n2n1` (centres unmarked) [Compound P-1.13, 6-(3-cyclopropylphenoxy)-N-[2-(2,4-dichlorophenyl)-2-fluoro-ethyl]-2-methyl-pyrazolo[1,5-a]pyrimidine-7-carboxamide]: the inhibition of growth at 20 ppm in assay [1] and in assay [3] was no less than 80% throughout. Further, the “control of Pyrenophora teres” value with Pyrenophora teres is given as “at least 80%”. Besides, in the assay with Alternaria solani, the “control of Alternaria solani” value was “at least 80%”.

As usually defined, the inhibition of growth is the share of the control response that was lost under treatment. The low end stands for a weak effect, the high end for a strong effect.
